{
  "source": "BindingDB's records for doi:10.1016/j.bmcl.2016.04.028",
  "about": "(Chinese Academy of Sciences (Cas), 2016)",
  "key": {"[1]": {"test": "Inhibition of FGFR1 in human KG1 cells assessed as suppression of cell proliferation after 72 hrs by SRB/CCK-8 assay"}, "[2]": {"test": "Inhibition of FGFR1 in human H1581 cells assessed as suppression of cell proliferation after 72 hrs by SRB/CCK-8 assay"}, "[3]": {"test": "Inhibition of FGFR3 in human RT112 cells assessed as suppression of cell proliferation after 72 hrs by SRB/CCK-8 assay"}},
  "data": [
    {"compound": "COc1cc(CCc2cc(Nc3ncnc4cc(N5CCN6CCCCC6C5)ccc34)n[nH]2)cc(OC)c1", "note": "(stereo not drawn)", "values": [
      {"measurement": "IC50", "setting": "[1]", "result": "< 0.2", "unit": "nM"},
      {"measurement": "IC50", "setting": "[2]", "result": "< 0.5", "unit": "nM"},
      {"measurement": "IC50", "setting": "[3]", "result": "< 0.2", "unit": "nM"}
    ]}
  ]
}
